Columns and labels:
[1] = tested on: Human immunodeficiency virus 1; assay: Antiviral activity against HIV1 infected in human U373-MAGI cells expressing CXCR4 assessed as infected host cells at 20 uM preincubated for 2 hrs prior to infection followed by compound wash out post infection measured after 48 hrs by single round replication assay; assay type: functional
[2] = tested on: Human immunodeficiency virus 1; assay: Antiviral activity against HIV1 infected in human U373-MAGI cells expressing CXCR4 assessed as frequency of viral mutagenesis at 20 uM preincubated for 2 hrs prior to infection followed by compound wash out measured after 48 hrs by flow cytometry relative to control; assay type: functional
[3] = tested on: Human immunodeficiency virus 1; assay: Antiviral activity against HIV1 infected in human U373-MAGI cells expressing CXCR4 assessed as inhibition of viral infection preincubated for 2 hrs prior to infection followed by compound wash out measured after 48 hrs by single round replication assay; assay type: functional, organism-based; conditions: for EC50: Human immunodeficiency virus 1, U373-MAGI
[4] = Cytotoxicity against human U373-MAGI cells expressing CXCR4; assay type: cell-based; conditions: read-out: TC50 (the source's name)
[5] = Selectivity index, ratio of TC50 for human U373-MAGI cells to EC50 for human U373-MAGI cells infected with HIV1; assay type: toxicity, cell-based; conditions: read-out: Selectivity Index
[6] = tested on: Human immunodeficiency virus 1; assay: Antiviral activity against HIV1 infected in human U373-MAGI cells expressing CXCR4 assessed as infected host cells at 6 uM preincubated for 2 hrs prior to infection followed by compound wash out measured after 48 hrs by single round replication assay; assay type: functional
[7] = tested on: Human immunodeficiency virus 1; assay: Antiviral activity against HIV1 infected in human U373-MAGI cells expressing CXCR4 assessed as frequency of viral mutagenesis at 6 uM preincubated for 2 hrs prior to infection followed by compound wash out measured after 48 hrs by flow cytometry relative to control; assay type: functional
[8] = tested on: Human immunodeficiency virus 1; assay: Antiviral activity against HIV1 infected in human U373-MAGI cells expressing CXCR4 assessed as infected host cells at 70 nM preincubated for 2 hrs prior to infection followed by compound wash out measured after 48 hrs by single round replication assay; assay type: functional
[9] = tested on: Human immunodeficiency virus 1; assay: Antiviral activity against HIV1 infected in human U373-MAGI cells expressing CXCR4 assessed as frequency of viral mutagenesis at 70 nM preincubated for 2 hrs prior to infection followed by compound wash out measured after 48 hrs by flow cytometry relative to control; assay type: functional
[10] = tested on: Human immunodeficiency virus 1; assay: Antiviral activity against HIV1 infected in human U373-MAGI cells expressing CXCR4 assessed as infected host cells at 30 uM preincubated for 2 hrs prior to infection followed by compound wash out measured after 48 hrs by single round replication assay; assay type: functional
[11] = tested on: Human immunodeficiency virus 1; assay: Antiviral activity against HIV1 infected in human U373-MAGI cells expressing CXCR4 assessed as frequency of viral mutagenesis at 30 uM preincubated for 2 hrs prior to infection followed by compound wash out measured after 48 hrs by flow cytometry relative to control; assay type: functional

In the case of `Oc1ccc(/C=C/c2cc(O)cc(O)c2)cc1` [RESVERATROL], the Activity [1] is reported as 91%, the Ratio [2] is reported as 1.08 and the Activity [3] is reported as “Dose-dependent effect”. For the same compound, the EC50 [3] was > 75 µM and the CC50 [4] was > 300 µM.
With `Oc1ccc(-c2cc(-c3cc(O)cc(O)c3)on2)cc1` the EC50 [3] was > 75 µM.
In the case of `Oc1ccc(-c2c(-c3cc(O)cc(O)c3)sc3ccccc23)cc1`, the selectivity ratio [5] is reported as 3.8, the Activity [3] is reported as “Dose-dependent effect” and the EC50 [3] is reported as 34.4 µM. It also gave a CC50 [4] of 131 µM.
With `Oc1cc(O)cc(-c2ccc3cnccc3c2)c1` the EC50 [3] was > 75 µM.
With `Oc1ccc(-c2c(-c3cc(O)cc(O)c3)oc3ccccc23)cc1` the selectivity ratio [5] was 2.4, the Activity [3] was “Dose-dependent effect” and the EC50 [3] was 35 µM. The CC50 [4] was 84.8 µM.
For `Oc1cc(O)cc(/C=C/c2ccc(O)c(O)c2)c1` [PICEATANNOL], the Activity [6] was 88%, the selectivity ratio [5] was > 18.7 and the Ratio [7] was 1.16. For the same compound, the Activity [3] was “Dose-dependent effect”, the EC50 [3] was 21.4 µM and the CC50 [4] was > 400 µM.
For `Oc1ccc(-n2cc(-c3cc(O)cc(O)c3)nn2)cc1`, the EC50 [3] was > 75 µM.
For `Oc1ccc(-c2cnc(-c3cc(O)cc(O)c3)nc2)cc1`, the EC50 [3] was > 75 µM.
Work on `Nc1ncn([C@H]2C[C@H](O)[C@@H](CO)O2)c(=O)n1` [DECITABINE] yielded an Activity [8] of 93% and a Ratio [9] of 1.26.
For `Oc1cc(O)cc(-c2ccc(-c3ccncc3)cc2)c1`, the EC50 [3] was > 100 µM.
In the case of `O=C(/C=C/c1ccc(O)cc1)c1cc(O)cc(O)c1`, the EC50 [3] is reported as > 75 µM.
`Oc1ccc(-c2ccc(-c3cc(O)cc(O)c3)cc2)cc1` gave an Activity [6] of 96%, a selectivity ratio [5] of 20.3 and a Ratio [7] of 1.1. The Activity [3] was “Dose-dependent effect”, the EC50 [3] was 8.8 µM and the CC50 [4] was 179 µM.
With `Oc1cc(O)cc(-c2ccc3cc(O)ccc3c2)c1` the EC50 [3] was > 75 µM.
For `Oc1ccc(-c2ncc(-c3cc(O)cc(O)c3)cn2)cc1`, the EC50 [3] was > 75 µM.
With `Oc1ccc(-c2sc3ccccc3c2-c2cc(O)cc(O)c2)cc1` the Activity [10] was 99%, the selectivity ratio [5] was 2.6 and the Activity [3] was “Dose-dependent effect”. It also gave an EC50 [3] of 45.1 µM, a Ratio [11] of 1.08 and a CC50 [4] of 118 µM.
With `Cn1c(-c2ccc(O)cc2)ccc1-c1cc(O)cc(O)c1` the EC50 [3] was > 75 µM.
With `Oc1ccc(-c2oc3ccccc3c2-c2cc(O)cc(O)c2)cc1` the selectivity ratio [5] was 1.5, the Activity [3] was “Dose-dependent effect” and the EC50 [3] was 65.1 µM. It also gave a CC50 [4] of 108 µM.

Source: ChEMBL document CHEMBL2163261, “Anti-HIV-1 activity of resveratrol derivatives and synergistic inhibition of HIV-1 by the combination of resveratrol and decitabine” (Bioorg Med Chem Lett, 2012)
